What all share (assay type): cell-based, Zea mays
One test has as its system Hi-II maize cells. Kind of test: Growth of Hi-II maize callus cells on media containing sucrose and raffinose, with or without dehydration stress. Particulars: for Relative weight gain, Dehydration stressed: dried in a flowhood for 4 h; for Relative weight gain, Dehydration stressed / Relative weight gain, Control: increase in weight relative to initial weight, means of three replicates; for Relative weight gain, Control: no dehydration stress. The procedure:
Table 1. Growth of Hi-II maize cells in culture on media containing sucrose and raffinose. Hi-II cells were weighed, cultured on different media for 4 d, transferred to N6 medium, cultured for another 7 d, and re-weighed. For dehydration stress, Hi-II cells were weighed, cultured on different media for […] , dried in a flowhood for 4 h, subsampled for water content, returned to the initial media for 1 d, transferred to N6 medium, cultured for 7 days, and re-weighed. Growth rates (increase in weight relative to initial weight) and water contents (dry weight basis) are the means of three replicates. Analysis of variance and mean separations were calculated among media within a dehydration stress treatment.
(§1) Maize Hi-II callus cultures were initiated according to Armstrong and Green (1985) from immature embryos isolated from Hi-II maize plants provided by Pioneer. Cultures were incubated in the dark at 25° C. on solid N6 medium containing 2% (w/v) sucrose (Chu et al., 1975) amended with 2 mg/L 2,4-dichlorophenoxyacetic acid, 25 mmol/L L-proline, and 10 μmol/L AgNO3, pH 5.8 (N6S2 medium) and sub-cultured every two weeks onto fresh media. For experimental treatments, approximately 2 g of cells (fresh weight) were added to each 100×15 mm plate. To determine the effect of various sugars and environmental stresses on the expression of ZmGOLS and ZmRAFS genes in maize Hi-II callus cells, callus was cultured on N6 media supplemented with different concentrations of sugars and: a) grown at 25° C. in the dark (control conditions); b) exposed to 42° C. for 24 h (heated); c) exposed to 4° C. for 24 h (chilled); or d) exposed to a current of air at 25° C. in a laminar flow hood for 4 h (dehydrated). To determine the responsiveness of ZmGOLS and ZmRAFS genes to exogenous ABA, calli were grown on media with 1, 10, and 100 μM cis, trans-ABA (Sigma) under control conditions for 1 d prior to harvest and RNA extraction.
Samples of Hi-II cells growing on N6S2 were weighed and placed on N6S2, N6S5, or N6S5 supplemented with 0.1% w/v raffinose. Callus was grown for 4 d at 25° C. on these various media. The callus on a particular medium was separated into two equal sub-samples and the fresh weight obtained. A sub-sample of half of the callus cells per plate for each medium was subjected to dehydration stress by removal from the medium and exposure to a current of air in a flow hood for 4 h. The remaining half of the callus cells were not exposed to stress. After 4 h dehydration stress the callus was placed back on its respective medium for an additional 22 h. Previously stressed and non-stressed calli were then transferred to N6S2 for one week. At the end of the week the calli were weighed again to determine how much growth had occurred during the week. The growth of the cells was expressed as the increase in fresh weight after one week of growth on N6S2 relative to the callus fresh weight 7 days earlier (Dennehey et al.; 1994). This experiment was repeated 3 times.

The next test deals with ZmRAFS1. Kind of test: ZmRAFS1 gene expression in maize Hi-II callus (northern blot). Particulars: for ZmRAFS1 expression, effect of raffinose or galactose: 4% sucrose plus raffinose (0.01-1%) or 0.33% galactose, 42° C. for 1 d (FIG. 8C); for ZmRAFS1 mRNA accumulation with myo-inositol or mannitol in the media (FIG. 8A): 2% sucrose plus 0.01% myo-inositol or 7.8% mannitol, control, dehydrated, 4 or 42° C. The procedure:
as §1
(§2) Sucrose and raffinose amounts in N6 media were altered, singly for sucrose or in combination with raffinose, to determine if RAFS substrates or the final product of the coordinate action of GOLS and RAFS influenced ZmGOLS and ZmRAFS gene expression. Because it is not known whether sucrose or raffinose are taken up into Hi-II cells directly or if they are hydrolyzed prior to uptake, glucose, fructose, galactose, and melibiose were also supplied. Myo-inositol (1,2,3,5-trans-4,6-hexahydroxy cyclohexane, Sigma), a GOLS substrate, was added to N6S2 media at amounts from 0.01-1% w/v. To determine if gene expression was regulated by osmotic stress, N6S2 media was amended with 0.1% to 7.8% w/v mannitol. Callus cells were also grown on N6 with combinations of sugars and the myo-inositol isomer, scyllo-inositol. All chemicals were sterilized by filtration and added to autoclaved media cooled to 65° C. just prior to pouring the plates. Hi-II callus cells on these various media were maintained under control conditions or subjected to stress (see above) prior to being harvested for sugar or RNA extraction or moisture content analysis. Cells were transferred to amended N6 media for 8 days, the environmental stress (if any) applied, and the cells harvested.
(§3) Total RNA from seeds, regardless of treatment, was extracted according to Wan and Wilkins (1994). Total RNA (20 μg per lane) from seeds was transferred onto positively charged nylon membranes (Amersham Life Science Inc., Arlington Heights, Ill., USA) in 10×SSC (1×SSC is 150 mM NaCl and 15 mM Na citrate pH 7) overnight, the blot dried and UV cross-linked at 50 mJoules on a GS genelinker UV chamber (Bio-Rad Laboratories, Hercules, Calif., USA). After rinsing the membranes for 5 min in 2×SSC, blots were placed in pre-hybridization solution (50% formamide, 5× Denhardt's solution (Denhardt 1966), 100 μg ml^−1 boiled, sheared salmon sperm DNA, 0.2% SDS, 6×SSC pH 7.0, Sambrook et al. 1989) for 4-6 h at 42° C. Randomly labeled, radioactive cDNA probes ([^32P] dCTP) were hybridized to the blots for at least 12 h at the same temperature as pre-hybridization. The primary wash was done in 2×SSC, 0.1% SDS, RT for 5 min, and repeated but at 65° C. for 30 min. The two final high stringency washes were in 0.2×SSC, 0.1% SDS at 65° C. for 30 min each. The hybridized probe was detected by autoradiography using Kodak X-OMAT X-ray film (Eastman-Kodak Ltd.) or on a phosphoimaging screen using a Phosphorlmager (Molecular Dynamics).

The next test concerns ZmGOLS2. As to the kind of experiment: ZmGOLS2 gene expression in maize Hi-II callus (northern blot, RPA). Particulars: for ZmGOLS2 mRNA in stressed callus (FIG. 7A): 2% sucrose plus 0.01% myo-inositol or 7.8% mannitol, dehydration 4 h or heat 42° C. 24 h. The procedure: as §1, §2, §3
The high degree of sequence homology among ZmGOLS genes prompted verification of results from northern blot analysis using RPAs (RPA III, Ambion, Little Rock, Tex., USA). […]

[1] abbreviates: unstressed cells on N6+2% (w/v) sucrose, 1, 10, 100 μM ABA, 1 d.

The record followed here is patent US20050055748A1, “Stress-responsive genes, regulatory elements, and methods of use for same” (priority 2003, published 2005).

“Also recorded” adds a separate entry of the source.

Consider `OC[C@H]1O[C@@](CO)(O[C@H]2O[C@H](CO)[C@@H](O)[C@H](O)[C@H]2O)[C@@H](O)[C@@H]1O` [5% sucrose, sucrose], for which, in the test with Hi-II maize cells, the “Relative weight gain, Dehydration stressed” value came out at 1.37 ± 0.02 b and the “Relative weight gain, Control” value is 1.45 ± 0.04 b.

Turning to `O=C[C@H](O)[C@@H](O)[C@@H](O)[C@H](O)CO` [galactose], the “ZmRAFS1 expression, effect of raffinose or galactose” value in the test on ZmRAFS1 was “as effective as raffinose at repressing ZmRAFS1 expression at equal galactose molarities”.

Regarding `CC1=CC(=O)CC(C)(C)[C@@]1(O)/C=C/C(C)=C\C(=O)O` [ABA, abscisic acid], the “ZmGOLS2 gene expression in response to applied ABA” value in the test with ZmGOLS2 (setting [1]) is reported as “not responsive to ABA”. Moreover, the “ZmRAFS1 gene expression in response to applied ABA” value with ZmRAFS1 (setting [1]) is on record as “not induced beyond that of 2% sucrose alone”.

As for `O[C@H]1[C@H](O)[C@@H](O)[C@H](O)[C@@H](O)[C@@H]1O` [scyllo-inositol], the “ZmGOLS2 expression, low scyllo-inositol with high mannitol” value in the test on ZmGOLS2 (dehydrated cells, 2% sucrose (FIG. 7C)) was “did not alter the expression of ZmGOLS2 relative to similar concentrations of myo-inositol and mannitol”.

With `O[C@H]1[C@H](O)[C@@H](O)[C@H](O)[C@@H](O)[C@H]1O` [myo-inositol, 1,2,3,5-trans-4,6-hexahydroxy cyclohexane], the “ZmGOLS2 mRNA in stressed callus (FIG. 7A)” value with ZmGOLS2 is recorded as “ZmGOLS2 mRNA accumulation”. Also, the “ZmGOLS2 transcription, low myo-inositol” value in the test on ZmGOLS2 (dehydrated cells, 2% sucrose, 0.01-0.1% w/v) was “upregulated ZmGOLS2 transcription”. Moreover, in the test with ZmGOLS2 (dehydrated cells, 2% sucrose, 1% w/v), the “ZmGOLS2 transcription, high myo-inositol” value was “repressed ZmGOLS2 transcription below that on 2% sucrose alone”. In addition, the “ZmRAFS1 mRNA accumulation with myo-inositol or mannitol in the media (FIG. 8A)” value in the test on ZmRAFS1 is listed as “did not elicit greater ZmRAFS1 mRNA accumulation with the exception of cells exposed to heat shock”.

Regarding `OC[C@H]1O[C@@](CO)(O[C@H]2O[C@H](CO)[C@@H](O)[C@H](O)[C@H]2O)[C@@H](O)[C@@H]1O` [sucrose], the “ZmRAFS1 gene expression, effect of sucrose and its monosaccharides” value in the test on ZmRAFS1 (heat-stressed callus, 2% (w/v) or greater sucrose (FIG. 8B, 8C)) is “up-regulated by sucrose”.

`OC[C@@H](O)[C@@H](O)[C@H](O)[C@H](O)CO` [mannitol]: the “ZmGOLS2 mRNA in stressed callus (FIG. 7A)” value in the test on ZmGOLS2 was “upregulated ZmGOLS2 gene expression when subjected to dehydration but not to heat stress”. For the same compound, in the test on ZmGOLS2 (dehydrated cells, 0.1-0.5% w/v), the “ZmGOLS2 transcription, low mannitol” value is recorded as “repressed ZmGOLS2 transcription below that present in cells grown on 2% sucrose alone”. Besides, in the test on ZmGOLS2 (dehydrated cells, 7.8% w/v), the “ZmGOLS2 transcription, very high mannitol” value was “upregulated ZmGOLS2 transcription”. Also, in the test on ZmRAFS1, the “ZmRAFS1 mRNA accumulation with myo-inositol or mannitol in the media (FIG. 8A)” value was “did not influence ZmRAFS1 gene expression”.

As to `OC[C@H]1O[C@@](CO)(O[C@H]2O[C@H](CO)[C@@H](O)[C@H](O)[C@H]2O)[C@@H](O)[C@@H]1O` [2% sucrose, sucrose], in the test with Hi-II maize cells, the “Relative weight gain, Dehydration stressed” value is given as 1.35 ± 0.16 b and the “Relative weight gain, Control” value is 1.89 ± 0.17 a.

In the case of `OC[C@H]1O[C@H](OC[C@H]2O[C@H](O[C@]3(CO)O[C@H](CO)[C@@H](O)[C@@H]3O)[C@H](O)[C@@H](O)[C@@H]2O)[C@H](O)[C@@H](O)[C@H]1O` [raffinose], in the test with Hi-II maize cells (0.1% raffinose in medium with 5% sucrose, unstressed), the callus mass accumulation was “prevented the detrimental effect of high sucrose on callus mass accumulation”. For the same compound, the “callus growth following dehydration stress” value in the test on Hi-II maize cells (0.1% w/v raffinose with 5% sucrose, 4 h dehydration) is “grew as well as callus that had not been subjected to dehydration; also recorded: capable of alleviating dehydration-induced damage”. Besides, in the test on ZmRAFS1, the “ZmRAFS1 expression, effect of raffinose or galactose” value is given as “may inhibit the expression of ZmRAFS1 upon attaining a sufficient concentration”.
